Results: patent US20260224566A1, “Obicetrapib and Ezetimibe Combination Treatment and Fixed Dose Pharmaceutical Compositions” (NewAmsterdam Pharma B.V., priority 2023, published 2026)

What was measured:
[1] = system: participants currently receiving high-intensity statin therapy; test: ROSE2 Phase 2b clinical trial: safety and tolerability (adverse events, disposition); format: in vivo, human
Procedure: The safety and tolerability profile of obicetrapib 10 mg, both in combination with ezetimibe 10 mg and as monotherapy, will be assessed by clinical laboratory assessments (chemistry and hematology), vital signs, physical examinations, and the incidence of AEs.
An AE can therefore be any unfavorable and/or unintended sign (including an abnormal laboratory finding), symptom, or disease temporally associated with the use of an investigational medicinal product, whether or not related to the investigational medicinal product. All AEs, including observed or volunteered problems, complaints, or symptoms, are to be recorded on the appropriate eCRF.
AEs, which include clinical laboratory assessment variables, will be monitored and documented from the time of first dose of study treatment until completion of Visit 5. Participants should be instructed to report any AE that they experience to the Investigator, whether or not they think the event is due to study drug. Beginning at the date of the first dose of study treatment, Investigators should make an assessment for AEs at each visit and record the event on the appropriate AE eCRF.
The Investigator will assess the severity (intensity) of each AE as mild, moderate, or severe, and will also categorize each AE as to its potential relationship to study drug using the categories of yes or no.
An AE or adverse reaction is considered serious if, in the view of either the Investigator or Sponsor, it results in any of the following outcomes: • Death; • A life-threatening AE; Note: An AE or adverse reaction is considered “life-threatening” if, in view of either the Investigator or Sponsor, its occurrence places the participant at immediate risk of death. […] However, unexpected complications and/or prolongation of hospitalization that occur during elective surgery should be recorded as AEs and assessed for seriousness. Admission to the hospital for social or situational reasons (ie, no place to stay, live too far away to come for hospital visits, respite care) will not be considered inpatient hospitalizations. • A persistent or significant disability/incapacity or substantial disruption of the ability to conduct normal life functions; • A congenital anomaly/birth defect; or • An important medical event.
The Safety Population will include all participants who receive at least 1 dose of any study drug. Treatment classification will be based on the actual treatment received. The Safety Population will be the primary population used for the safety analyses.

[2] = system: ApoE*3-Leiden.CETP transgenic mice; test: Example 12: plasma lipids, VLDL clearance, LDL receptor, fecal and biliary sterols in ApoE*3-Leiden.CETP mice; format: in vivo, mouse
Description: Obicetrapib is a selective cholesteryl ester transfer protein (CETP) inhibitor currently in clinical development for the treatment of hypercholesterolemia and reduction of cardiovascular risk that strongly reduces Apolipoprotein B (ApoB) and low-density lipoprotein cholesterol (LDL-C) and concomitantly increases plasma high-density lipoprotein cholesterol (HDL-C). Ezetimibe reduces absorption of biliary and dietary cholesterol from the small intestine, thereby reducing LDL-C levels. The current study was carried out to elucidate the mechanism of action responsible for the observed decrease in non-HDL-C by obicetrapib monotherapy and in combination with ezetimibe in a translational mouse model for hyperlipidemia and atherosclerosis.
(§1) The experimental protocol is illustrated in FIG. 71, with time (t) measured in weeks. Female ApoE*3-Leiden.CETP transgenic mice were fed a Western diet with 0.05% w/w cholesterol (equivalent to daily human intake) with (i) no drug (control), or the same diet containing (ii) obicetrapib alone (2 mg/kg/day), (iii) ezetimibe alone (1 mg/kg/day) or (iv) the combination of obicetrapib and ezetimibe. In the experiment, the effects of the treatments on, amongst other things, plasma blood lipids and fecal bile acids and sterols were determined.

CETP = target: T1, CETP (Homo sapiens, UniProt P11597); test: Example 12: CETP activity and mass in ApoE*3-Leiden.CETP mice; format: in vivo, mouse
T1 construct: from tissue; host or cells: female ApoE*3-Leiden.CETP transgenic mice dosed in vivo
T1 sequence (P11597 18-493): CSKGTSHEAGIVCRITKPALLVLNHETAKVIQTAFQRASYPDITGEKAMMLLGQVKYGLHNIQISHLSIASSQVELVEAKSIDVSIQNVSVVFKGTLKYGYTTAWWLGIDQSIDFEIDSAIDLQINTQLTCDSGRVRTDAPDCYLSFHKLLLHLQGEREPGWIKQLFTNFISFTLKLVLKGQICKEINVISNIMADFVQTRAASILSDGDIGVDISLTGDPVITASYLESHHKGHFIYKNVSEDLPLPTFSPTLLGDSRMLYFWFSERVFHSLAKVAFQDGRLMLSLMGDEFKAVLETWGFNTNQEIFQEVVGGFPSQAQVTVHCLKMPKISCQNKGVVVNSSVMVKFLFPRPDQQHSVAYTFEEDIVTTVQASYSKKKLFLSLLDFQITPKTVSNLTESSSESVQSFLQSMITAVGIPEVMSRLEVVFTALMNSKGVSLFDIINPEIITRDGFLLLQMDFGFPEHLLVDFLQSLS
Procedure: To further elucidate the effects of the combination treatment, further studies were carried out using a standard human CETP transgenic knock-in mouse. As can be inferred from the experimental results reported herein, Obicetrapib alone and the combination with ezetimibe reduce non-HDL-C levels by increased VLDL lipolysis, increased VLDL clearance and elevated LDL receptor levels accompanied by an enhanced fecal bile acid and neutral sterol excretion.
as §1

Lp(a) = conditions: TA-8995-06, 12 weeks of treatment; cited from earlier work
[3] = TA-8995-04, healthy volunteers; cited from earlier work
[4] = All Randomized Participants, obicetrapib 10 mg (N = 39), obicetrapib 10 mg + ezetimibe 10 mg (N = 40)
[5] = Safety Population, 10 mg each drug
[6] = Safety Population, 10 mg each drug, last line so labelled (r41)
[7] = obicetrapib 2 mg/kg/day, ezetimibe 1 mg/kg/day in Western diet

CCOC(=O)N1c2ccc(C(F)(F)F)cc2[C@@H](N(Cc2cc(C(F)(F)F)cc(C(F)(F)F)c2)c2ncc(OCCCC(=O)O)cn2)C[C@H]1CC [obicetrapib, {4-[(2-{[3,5-bis(trifluoromethyl)benzyl] [(2R,4S)-1-(ethoxycarbonyl)-2-ethyl-6-(trifluoromethyl)-1,2,3,4-tetrahydroquinolin-4-yl]amino}pyrimidin-5-yl)oxy]butanoic acid}]
Completed the study (with PK), (%) [1, 4]: (94.9) % | Completed treatment, (%) [1, 4]: (92.3) % | Discontinued study early, (%) [1, 4]: (5.1) % | Discontinued treatment, (%) [1, 4]: (7.7) % | Primary reason for early study discontinuation: LOST TO FOLLOW-UP, (%) [1, 4]: (2.6) % | Primary reason for early study discontinuation: OTHER, (%) [1, 4]: (0.0) % | Primary reason for early study discontinuation: WITHDRAWAL BY SUBJECT, (%) [1, 4]: (0.0) % | Primary reason for treatment discontinuation: NON-COMPLIANCE WITH STUDY DRUG, (%) [1, 4]: (2.6) % | Primary reason for treatment discontinuation: OTHER, (%) [1, 4]: (0.0) % | Primary reason for treatment discontinuation: WITHDRAWAL BY SUBJECT, (%) [1, 4]: (0.0) % | Any TEAEs by maximum severity: Mild, e [1, 5]: 20 | Any TEAEs by maximum severity: Moderate, (%) [1, 5]: (7.7) % | Any TEAEs leading to death, (%) [1, 5]: (0.0) % | Any TEAEs leading to death, e [1, 5]: 0 | Any serious TEAEs (TESAEs), (%) [1, 5]: (5.1) % | Any serious TEAEs (TESAEs), e [1, 5]: 2 | Any study drug-related TEAEs by maximum severity: Mild, e [1, 5]: 4 | Any study drug-related TEAEs by maximum severity: Moderate, (%) [1, 5]: (5.1) % | Any study drug-related TEAEs by maximum severity: Severe, (%) [1, 5]: (5.1) % | Any study drug-related TEAEs leading to discontinuation of study drug, (%) [1, 5]: (5.1) % | Any study drug-related TEAEs, (%) [1, 5]: (2.6) % | Any study drug-related TESAEs, (%) [1, 5]: (2.6) % | Any study drug-related TESAEs, e [1, 5]: 1 | Any treatment-emergent AEs (TEAEs), e [1, 5]: 20 | Any TEAEs leading to discontinuation of study drug, (%) ([1]; Safety Population, 10 mg each drug, first line so labelled (r25)): (0.0) % | Any TEAEs leading to discontinuation of study drug, (%) [1, 6]: (0.0) % | Any TEAEs leading to discontinuation of study drug, e [1, 6]: 0 | triglycerides levels ([2]; FIG. 74): decreased | liver uptake of VLDL like particles ([2]; FIG. 77): increased | plasma pcsk-9 levels ([2]; FIG. 78): decreased | cholesterol balance ([2]; FIG. 81): decreased | biliary bile acids and biliary bile acid flow ([2]; not shown): did not affect | biliary phospholipids and biliary phospholipid flow ([2]; not shown): did not affect | fecal bile acid excretion, change ([2]; obicetrapib 2 mg/kg/day in Western diet): +41% | ApoA1 levels, increase [2, 7]: 98% | HDL-C, change [2, 7]: +260% | half-life of VLDL-like particles, change [2, 7]: −44% | hepatic LDL receptor expression, change [2, 7]: +63% | non-HDL-C levels, change [2, 7]: −61% | total plasma cholesterol levels, change [2, 7]: −42% | cetp mass (CETP; data not shown): does not affect | CETP activity, change (CETP; [7]): −99% | Lp(a) levels (Lp(a)): statistically significant reduction | effect on the QTcF [3]: no effect
